From the supplement of paper PMC4862054

Tests used:
Conditions in all cases: incubation time: 72 h
[1] = system: MDA-MB-468; test: normalised response (% of control), CellTiter-Glo; higher = more viable cells (100 = DMSO, 0 = benzethonium chloride kill control)
Protocol: (§1)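 DSRT, 72 h incubation, CellTox Green / CellTiter-Glo readout. Signal is normalised to DMSO and benzethonium chloride controls. Value is the normalised response at the highest dose.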

[2] = system: MCF-10A; test: as above
Protocol: as §1

[3] = system: HCC1937; test: as above
Protocol: as §1

[4] = system: BT-549; test: as above
Protocol: as §1

[5] = system: CAL-85-1; test: as above
Protocol: as §1

[6] = system: CAL-148; test: as above
Protocol: as §1

[7] = system: MDA-MB-453; test: as above
Protocol: as §1

[8] = system: SK-BR-3; test: as above
Protocol: as §1

[9] = system: HCC1599; test: as above
Protocol: as §1

[10] = system: BT-474; test: as above
Protocol: as §1

[11] = system: CAL-120; test: as above
Protocol: as §1

[12] = system: DU-4475; test: as above
Protocol: as §1

[13] = system: HCC1143; test: as above
Protocol: as §1

[14] = system: MDA-MB-231; test: as above
Protocol: as §1

[15] = system: HDQ-P1; test: as above
Protocol: as §1

[16] = system: MFM-223; test: as above
Protocol: as §1

[17] = system: CAL-51; test: as above
Protocol: as §1

[18] = system: Hs578T; test: as above
Protocol: as §1

[19] = system: MDA-MB-436; test: as above
Protocol: as §1

[20] = system: MDA-MB-468; test: normalised response (% of control), CellTox Green; higher = less cell death (100 = DMSO, 0 = benzethonium chloride kill control)
Outline: (§2)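 Breast cancer cell lines (20 µl suspension) were seeded into 384-well plates holding compound at 5 concentrations in 10-fold steps over a compound-specific 10,000-fold range, then incubated 72 h. CellTox Green fluorescence (485/520 nm) was read first, then CellTiter-Glo luminescence after 10 min at room temperature. Each plate was normalised to 0.1 % DMSO (100) and a positive kill control (0). Each value is the normalised signal at a single concentration of the series.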

[21] = system: MCF-10A; test: as above
Outline: as §2

[22] = system: HCC1937; test: as above
Outline: as §2

[23] = system: BT-549; test: as above
Outline: as §2

[24] = system: CAL-85-1; test: as above
Outline: as §2

[25] = system: CAL-148; test: as above
Outline: as §2

[26] = system: MDA-MB-453; test: as above
Outline: as §2

[27] = system: HCC1599; test: as above
Outline: as §2

[28] = system: BT-474; test: as above
Outline: as §2

[29] = system: CAL-120; test: as above
Outline: as §2

[30] = system: DU-4475; test: as above
Outline: as §2

[31] = system: HCC1143; test: as above
Outline: as §2

[32] = system: MDA-MB-231; test: as above
Outline: as §2

[33] = system: HDQ-P1; test: as above
Outline: as §2

[34] = system: MFM-223; test: as above
Outline: as §2

[35] = system: CAL-51; test: as above
Outline: as §2

[36] = system: MDA-MB-436; test: as above
Outline: as §2

[37] = system: Hs578T; test: as above
Outline: as §2

| SMILES | normalised response [1] | normalised response [2] | normalised response [3] | normalised response [4] | normalised response [5] | normalised response [6] | normalised response [7] | normalised response [8] | normalised response [9] | normalised response [10] | normalised response [11] | normalised response [12] | normalised response [13] | normalised response [14] | normalised response [15] | normalised response [16] | normalised response [17] | normalised response [18] | normalised response [19] | normalised response [20] | normalised response [21] | normalised response [22] | normalised response [23] | normalised response [24] | normalised response [25] | normalised response [26] | normalised response [27] | normalised response [28] | normalised response [29] | normalised response [30] | normalised response [31] | normalised response [32] | normalised response [33] | normalised response [34] | normalised response [35] | normalised response [36] | normalised response [37] |
| --- | --- | --- | --- | --- | --- | --- | --- | --- | --- | --- | --- | --- | --- | --- | --- | --- | --- | --- | --- | --- | --- | --- | --- | --- | --- | --- | --- | --- | --- | --- | --- | --- | --- | --- | --- | --- | --- |
| CC(C)(C)Cn1c(N)nc2ccc(-c3[nH]c(C(C)(C)C)nc3-c3ccc(F)cc3)nc21 (10000 nM) | 37% | 43.6% | 65.3% | 76.4% | 64.9% | 94.7% | 77.3% | 62.7% | 78.1% | 66.4% | 89.3% | 99.4% | 86.1% | 67.2% | 70.7% | 63.7% | 104% | 94.1% | 82.1% | 107% | 89.3% | 92.4% | 90.9% | 41.5% | 98.9% | 93.9% | 85.6% | 89.8% | 93.6% | 95.7% | 87.1% | 47.1% | 100% | 86.6% | 104% | 71.1% | – |
| Cn1cc(C[C@@H](N)C(=O)O)c2ccccc21 [1-methyl-D-tryptophan] (5000 nM) | 96.7% | 97.4% | 99.5% | 97.8% | 98.3% | 85.7% | 91.4% | 93.2% | 87.9% | 96.4% | 101% | 92.9% | 102% | 95.7% | 111% | 92.5% | 107% | 97% | 95.1% | 53% | 90.3% | 106% | 90% | 106% | 105% | 99.9% | 98% | 99.7% | 99.4% | 96.5% | 124% | 99.5% | 60.4% | 103% | 102% | 93.1% | 101% |
| CC[C@H](CC#N)OC(=O)N[C@@H](C)c1cccc(NC(=O)Nc2ccc(-c3cnco3)c(OC)c2)c1 [AVN944] (10000 nM) | 30% | 58.9% | 42.2% | 27% | 38.4% | 41.4% | 62.3% | 37.1% | 33.4% | 48.8% | 50.6% | 15.7% | 31.5% | 47% | 42.3% | 49.7% | 19% | 35.4% | 38.1% | 124% | 85.2% | 96.6% | 88.5% | 101% | 67.1% | 107% | 97.1% | 96.4% | 102% | 89.2% | 105% | 110% | 94.6% | 100% | 78.9% | 97.9% | 48% |
| CCc1cnn2c(NCc3ccc[n+]([O-])c3)cc(N3CCCC[C@H]3CCO)nc12 [Dinaciclib] (1000 nM) | 6.62% | 21.3% | 27.8% | 14% | 8.86% | 67.5% | 20.6% | 2.06% | 12.3% | 20.2% | 38.1% | 21.8% | 19.3% | 6.98% | 23% | 11.5% | 14.3% | 17.1% | 19.3% | 31.8% | 47.1% | 83.6% | 81.4% | 4.91% | 46.3% | 88.2% | 74.5% | 88.3% | 80.6% | 90.4% | 88.2% | -18.6% | 48.4% | 42.2% | 71.8% | 86.5% | 36.3% |
